Data taken from patent US5290553A, “Alkaloids of picralima nitida used for treatment of protozoal diseases” (The United States of America as represented by the …, priority 1991, dated 1994).
≈ marks a conversion by molar mass, not a printed value. Like-named read-outs stand apart in the source and are kept apart here. Blank lines part the entries; values can stand above or below the compound they belong to.

Key:
[1] = test system: Plasmodium falciparum D-6 clone (Sierra Leone); experiment: In vitro antimalarial assay, D-6 clone (tritiated hypoxanthine uptake); format: cell-based; conditions: for IC50: Plasmodium falciparum, read-out: IC50, D-6 Clone
Experimental: (§1) The in vitro assays were performed by using a modification of the semi-automated microdilution technique described earlier in Desjardins et al.^29 and Milhous et al.^30 Two P. falciparum malaria parasite clones, designated as Indochina (W-2) and Sierra Leone (D-6), were utilized in susceptibility testing. The W-2 clone is resistant to chloroquine, pyrimethamine, sulfadoxine, and quinine, and the other clone is resistant to mefloquine. The test extracts were dissolved in dimethylsulfoxide (DMSO) and serially diluted with media. The uptake of tritiated hypoxanthine was used as an index of inhibition of parasite growth.
(§2) Two P. falciparum malaria parasite clones, designated as Indochina (W-2) and Sierra Leone (D-6), were utilized in susceptibility testing. The W-2 clone is resistant to chloroquine, pyrimethamine, sulfadoxine, and quinine, and the other clone is resistant to mafloquine.
(§3) The test extracts were dissolved in DMSO and serially diluted with media. The uptake of tritiated hypoxanthine was used an an index of inhibition of parasite growth.

[2] = test system: Plasmodium falciparum W-2 clone (Indochina); experiment: In vitro antimalarial assay, W-2 clone (tritiated hypoxanthine uptake); format: cell-based; conditions: for IC50: Plasmodium falciparum, read-out: IC50, W-2 Clone
Experimental: as §1, §2, §3

avian malaria = conditions: in vivo; cited from earlier work
malaria = conditions: in vivo; cited from earlier work
[3] = relative to cocaine; cited from earlier work
[4] = test system: Leishmania (Leishmania) chagasi promastigotes (MHOM/BR/84/BA-13); experiment: Growth inhibition of leishmania promastigotes over 96 hours; format: cell-based
Experimental: A clinical isolate of visceral Leishmania (Leishmania) chagasi, MHOM/BR/84/BA-13, was used for this study. This isolate was selected because sensitivity to SbV was previously determined using RAM. MHOM/BR/84/BA-13 is sensitive to Pentostam (sodium antimony gluconate) at 6 μg/ml Sb (20 μg/ml drug); and to Glucantime (N-methyl-glucamine antimoniate) at 80 μg/ml Sb (286 μg/ml drug)
Promastigotes of L. chagasi were grown in a serum-free, defined medium, MM2^43. The MM2 medium contained 120 μg/ml protein (10 μg/ml human transferrin, 10 μg/ml human insulin, 100 μg/ml defatted bovine albumin), plus 10 μg/ml low density bovine lipoprotein. […] Cultures were maintained at 25° C. during growth and incubation with drug.
Promastigotes were maintained in log phase growth for 3 successive transfers (48-72 hours apart) prior to radiorespirometric testing. Test extracts (or PBSS plus drug solvent [DMSO], for parallel control cultures) was added 24 hours after the third promastigote transfer to fresh growth medium. Incubation in the presence of plant extracts was continued for 96 additional hours while the parasites remained in mid-log phase growth. The rest of the radiorespirometric procedure was conducted as previously described^45.

[5] = test system: Trypanosoma brucei brucei; experiment: In vivo antitrypanosomial activity, rat; conditions: 7 mg i.p.
[6] = test system: Trypanosoma brucei brucei; experiment: In vivo antitrypanosomial activity, mouse; conditions: 7 mg i.p.
[7] = test system: W-2 and D-6 clones of Plasmodium falciparum; experiment: In vitro antimalarial assay, statements on both clones; format: cell-based; conditions: P. falciparum clones
Experimental: as §1
The in vitro assays were performed by using a modification of the semi-automated microdilution technique described earlier (Desjardins et al., 1979; Milhous et al., 1985). Two P. falciparum malaria parasite clones, designated as Indochina (W-2) and Sierra Leone (D-6), were utilized in susceptibility testing. The W-2 clone is resistant to chloroquine, pyrimethamine, sulfadoxine, and quinine, and the other clone is resistant to mafloquine.
as §3

opiate receptor = conditions: from cell suspension culture of P. nitida; cited from earlier work
[8] = test system: Leishmania (Leishmania) chagasi MHOM/BR/84/BA-13; conditions: previously determined; cited from earlier work
[9] = Table 5, alkaloids and reference drugs

Compound: CC=C1CN2CCC34c5ccccc5N(C)C35OCC4(C(=O)OC)C1CC25 (stereo not shown) [.PSI.-Aukuammigine]
IC50 [1]: 0.83 mg/L (≈ 2.26 µM)
IC50 [2]: 0.1 mg/L (≈ 0.273 µM)

IC50 [1, 9]: 4.7 mg/L (≈ 14.4 µM)
IC50 [2, 9]: 1.24 mg/L (≈ 3.8 µM)
Compound: CC[C@H]1[C@@H]2C[C@H]3[C@@H]4N(C)c5ccccc5[C@]45C[C@@H]([C@@H]2[C@H]5O)N3[C@@H]1O [Ajmaline, reference compound]

Compound: C/C=C1/CN2CC[C@]34C(=C(C(=O)OC)[C@H]1C[C@H]23)Nc1ccccc14 [Akuammicine]
IC50 [1, 9]: 0.45 mg/L (≈ 1.4 µM)
IC50 [2, 9]: 0.73 mg/L (≈ 2.26 µM)

Compound: C/C=C1/CN2CC[C@@]34c5cc(O)ccc5N(C)[C@]35OC[C@@]4(C(=O)OC)[C@@H]1C[C@H]25 [Akuammine]
IC50 [1, 9]: 0.95 mg/L (≈ 2.48 µM)
activity against avian malaria (avian malaria): inactive against avian malaria
activity in clinical trials (malaria): inactive
local anesthetic action [3]: local anesthetic action comparable to that of cocaine
IC50 [2, 9]: 0.66 mg/L (≈ 1.73 µM)

IC50 [1, 9]: 2.76 mg/L (≈ 7.83 µM)
IC50 [2, 9]: 2.86 mg/L (≈ 8.11 µM)
Compound: COC(=O)C1=CO[C@@H](C)[C@@H]2CN3CCc4c([nH]c5ccccc45)C3C[C@H]12 (stereo partly shown) [Alstonine (tetrahydro-)]

IC50 [1, 9]: 0.02 mg/L
IC50 [2, 9]: 0.09 mg/L
Compound: COC(=O)C1=CO[C@@H](C)[C@@H]2C[n+]3ccc4c([nH]c5ccccc54)c3C[C@H]12 [Alstonine]
inhibition of leishmania promastigotes, ranking ([4]; alkaloids isolated from the active fraction): greatest inhibition
concentration of the highest growth inhibition ([4]; leishmania promastigotes): 50 µg/mL
growth inhibition, dose relation ([4]; leishmania promastigotes): dose related activity

IC50 [1, 9]: 0.004 mg/L (≈ 0.0142 µM)
IC50 [2, 9]: 0.002 mg/L (≈ 0.00708 µM)
Compound: C[C@@H]1CC[C@H]2[C@@H](C)C(=O)O[C@@H]3O[C@@]4(C)CC[C@@H]1[C@]32OO4 [Artemisinin, reference compound]

Compound: N=C(N)c1ccc(N=NNc2ccc(C(=N)N)cc2)cc1 [Berenil]
Day of 0% Parasite Count [5]: 8 days
Day of 0% Parasite Count [6]: 6 days

Compound: CCN(CC)CCCC(C)Nc1ccnc2cc(Cl)ccc12 (stereo not shown) [Chloroquine, reference compound]
IC50 [1]: 0.006 mg/L (≈ 0.0188 µM)
IC50 [2]: 0.04 mg/L (≈ 0.125 µM)

Compound: C/C=C1/C[N@+]2(C)CC[C@@]34c5ccccc5N[C@]32[C@@H](O)C[C@@H]1[C@@]4(CO)C(=O)OC [Echitamine, reference compound]
IC50, D-6 Clone [1, 9]: 4.68 mg/L
antimalarial activity in vitro [7]: no activity
IC50, W-2 Clone [2, 9]: 7.25 mg/L

Compound: CC=C1CN2C3CC1C(CO)C2Cc1c3[nH]c2ccccc12 (stereo not shown) [PNF-S7]
IC50 [1, 9]: 7.6 mg/L (≈ 25.8 µM)
IC50 [2, 9]: 10.6 mg/L (≈ 36 µM)

Compound: CC=C1CN2C3CC45c6ccccc6NC4(O3)C2CC1C5(COC(C)=O)C(=O)OC (stereo not shown) [Picraline]
IC50 [1, 9]: 0.78 mg/L (≈ 1.9 µM)
IC50 [2, 9]: 0.53 mg/L (≈ 1.29 µM)

Compound: C/C=C1/CN2[C@H]3C[C@H]1[C@@H](CO)[C@@H]2Cc1c3[nH]c2ccc(O)cc12 [Sarpagine, reference compound]
IC50 [1, 9]: 16.6 mg/L (≈ 53.6 µM)
IC50 [2, 9]: 29.2 mg/L (≈ 94 µM)

Compound: COC(=O)[C@@H]1[C@H]2C[C@H]3c4[nH]c5ccccc5c4CCN3C[C@@H]2CC[C@@H]1O [Yohimbine, reference compound]
IC50 [1]: 7.51 mg/L (≈ 21.2 µM)
IC50 [2]: 6.16 mg/L (≈ 17.4 µM)

Compound: C=C1c2[nH]c3ccccc3c2CCN2CC[C@@H]1/C(=C\C)C2 [pericine]
CNS activity, opiate receptor binding (opiate receptor): CNS active

Compound: N-methyl-glucamine antimoniate [Glucantime]
concentration at which isolate is sensitive, as Sb [8]: 80 μg/ml Sb
concentration at which isolate is sensitive, as drug [8]: 286 μg/ml drug

Compound: sodium antimony gluconate [Pentostam]
concentration at which isolate is sensitive, as Sb [8]: 6 μg/ml Sb
concentration at which isolate is sensitive, as drug [8]: 20 μg/ml drug
